Experiments:
[1] = test system: Tyrosine-protein kinase ABL1 (Homo sapiens), P00519 [Q252H]; settings: Compound concentration 1000.0 nM
[2] = biological target: RAC-alpha serine/threonine-protein kinase (Homo sapiens) (UniProt P31749); settings: Compound concentration 1000.0 nM
[3] = biological target: ALK tyrosine kinase receptor (Homo sapiens) (UniProt Q9UM73); settings: Compound concentration 1000.0 nM
[4] = biological target: Bone morphogenetic protein receptor type-1A (Homo sapiens) (UniProt P36894); settings: Compound concentration 1000.0 nM
Bone morphogenetic protein receptor type-1A (Homo sapiens), sequence (P36894 whole entry): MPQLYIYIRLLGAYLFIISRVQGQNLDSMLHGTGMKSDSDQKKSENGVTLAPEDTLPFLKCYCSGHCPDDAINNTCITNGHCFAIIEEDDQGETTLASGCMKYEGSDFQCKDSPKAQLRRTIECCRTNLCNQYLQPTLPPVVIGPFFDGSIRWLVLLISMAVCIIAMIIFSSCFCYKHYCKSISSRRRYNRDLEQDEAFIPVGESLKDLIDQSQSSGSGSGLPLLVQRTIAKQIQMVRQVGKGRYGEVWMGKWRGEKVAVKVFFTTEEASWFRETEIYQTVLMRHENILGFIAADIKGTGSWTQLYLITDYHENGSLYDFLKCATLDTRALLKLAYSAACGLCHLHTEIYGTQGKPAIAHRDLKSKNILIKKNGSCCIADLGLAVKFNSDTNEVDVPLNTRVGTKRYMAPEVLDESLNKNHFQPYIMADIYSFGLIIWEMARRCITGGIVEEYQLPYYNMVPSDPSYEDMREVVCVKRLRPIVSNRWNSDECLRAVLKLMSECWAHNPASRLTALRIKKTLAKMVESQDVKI

[5] = biological target: Calcium/calmodulin-dependent protein kinase kinase 2 (Homo sapiens) (UniProt Q96RR4); settings: Compound concentration 1000.0 nM
[6] = biological target: Cyclin-dependent kinase 3 (Homo sapiens) (UniProt Q00526); settings: Compound concentration 1000.0 nM
[7] = biological target: Casein kinase I isoform alpha-like (Homo sapiens) (UniProt Q8N752); settings: Compound concentration 1000.0 nM
[8] = biological target: Casein kinase I isoform gamma-3 (Homo sapiens) (UniProt Q9Y6M4); settings: Compound concentration 1000.0 nM
[9] = biological target: Epidermal growth factor receptor (Homo sapiens) (UniProt P00533); settings: Compound concentration 1000.0 nM
[10] = biological target: Mitogen-activated protein kinase 1 (Homo sapiens) (UniProt P28482); settings: Compound concentration 1000.0 nM
Mitogen-activated protein kinase 1 (Homo sapiens), sequence (P28482 whole entry): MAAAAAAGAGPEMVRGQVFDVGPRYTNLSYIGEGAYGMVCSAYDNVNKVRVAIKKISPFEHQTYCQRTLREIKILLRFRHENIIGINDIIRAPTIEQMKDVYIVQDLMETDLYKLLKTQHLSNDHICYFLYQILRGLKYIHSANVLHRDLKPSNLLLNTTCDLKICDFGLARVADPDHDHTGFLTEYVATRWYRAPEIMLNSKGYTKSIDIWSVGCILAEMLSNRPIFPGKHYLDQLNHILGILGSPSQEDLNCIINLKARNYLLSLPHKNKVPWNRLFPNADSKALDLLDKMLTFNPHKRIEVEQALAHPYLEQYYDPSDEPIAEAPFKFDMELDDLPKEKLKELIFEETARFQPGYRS

[11] = biological target: Mitogen-activated protein kinase 6 (Homo sapiens) (UniProt Q16659); settings: Compound concentration 1000.0 nM
[12] = biological target: T1, Interleukin-1 receptor-associated kinase 4 (Homo sapiens) (UniProt Q9NWZ3); settings: Compound concentration 1000.0 nM
T1 sequence (whole entry): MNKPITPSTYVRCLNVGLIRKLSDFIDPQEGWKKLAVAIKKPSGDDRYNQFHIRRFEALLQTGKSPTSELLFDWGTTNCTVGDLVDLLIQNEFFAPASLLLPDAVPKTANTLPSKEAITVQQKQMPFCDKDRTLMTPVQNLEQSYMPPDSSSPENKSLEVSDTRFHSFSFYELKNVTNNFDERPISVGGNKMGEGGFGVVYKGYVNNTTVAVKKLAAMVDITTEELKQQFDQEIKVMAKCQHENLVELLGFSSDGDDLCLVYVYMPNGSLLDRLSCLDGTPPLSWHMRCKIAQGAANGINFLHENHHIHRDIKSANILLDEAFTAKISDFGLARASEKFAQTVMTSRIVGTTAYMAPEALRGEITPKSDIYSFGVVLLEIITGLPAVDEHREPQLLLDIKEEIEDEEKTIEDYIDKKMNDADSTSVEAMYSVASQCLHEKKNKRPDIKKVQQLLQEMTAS

[13] = biological target: Mast/stem cell growth factor receptor Kit (Homo sapiens) (UniProt P10721); settings: Compound concentration 1000.0 nM
[14] = biological target: Serine/threonine-protein kinase LATS1 (Homo sapiens) (UniProt O95835); settings: Compound concentration 1000.0 nM
[15] = biological target: T2, Mitogen-activated protein kinase kinase kinase 3 (Homo sapiens) (UniProt Q99759); settings: Compound concentration 1000.0 nM
T2 sequence (whole entry): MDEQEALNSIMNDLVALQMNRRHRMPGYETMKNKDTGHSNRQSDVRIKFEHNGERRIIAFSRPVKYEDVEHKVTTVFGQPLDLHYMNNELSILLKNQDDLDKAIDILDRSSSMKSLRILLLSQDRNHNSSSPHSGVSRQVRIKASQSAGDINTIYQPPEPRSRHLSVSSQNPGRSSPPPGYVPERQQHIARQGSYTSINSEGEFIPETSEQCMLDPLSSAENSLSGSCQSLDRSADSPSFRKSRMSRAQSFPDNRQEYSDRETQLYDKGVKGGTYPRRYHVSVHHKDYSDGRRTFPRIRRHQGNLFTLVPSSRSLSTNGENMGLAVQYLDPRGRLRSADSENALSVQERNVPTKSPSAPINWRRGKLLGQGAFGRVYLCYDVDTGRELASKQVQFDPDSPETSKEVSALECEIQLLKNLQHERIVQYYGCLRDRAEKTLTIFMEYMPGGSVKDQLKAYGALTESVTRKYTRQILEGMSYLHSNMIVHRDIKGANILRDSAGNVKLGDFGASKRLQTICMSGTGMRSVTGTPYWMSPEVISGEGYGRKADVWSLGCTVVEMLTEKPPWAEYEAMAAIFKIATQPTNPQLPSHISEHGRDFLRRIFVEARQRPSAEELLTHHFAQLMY

[16] = biological target: 3-phosphoinositide-dependent protein kinase 1 (Homo sapiens) (UniProt O15530); settings: Compound concentration 1000.0 nM
3-phosphoinositide-dependent protein kinase 1 (Homo sapiens), sequence (O15530 whole entry, canonical isoform): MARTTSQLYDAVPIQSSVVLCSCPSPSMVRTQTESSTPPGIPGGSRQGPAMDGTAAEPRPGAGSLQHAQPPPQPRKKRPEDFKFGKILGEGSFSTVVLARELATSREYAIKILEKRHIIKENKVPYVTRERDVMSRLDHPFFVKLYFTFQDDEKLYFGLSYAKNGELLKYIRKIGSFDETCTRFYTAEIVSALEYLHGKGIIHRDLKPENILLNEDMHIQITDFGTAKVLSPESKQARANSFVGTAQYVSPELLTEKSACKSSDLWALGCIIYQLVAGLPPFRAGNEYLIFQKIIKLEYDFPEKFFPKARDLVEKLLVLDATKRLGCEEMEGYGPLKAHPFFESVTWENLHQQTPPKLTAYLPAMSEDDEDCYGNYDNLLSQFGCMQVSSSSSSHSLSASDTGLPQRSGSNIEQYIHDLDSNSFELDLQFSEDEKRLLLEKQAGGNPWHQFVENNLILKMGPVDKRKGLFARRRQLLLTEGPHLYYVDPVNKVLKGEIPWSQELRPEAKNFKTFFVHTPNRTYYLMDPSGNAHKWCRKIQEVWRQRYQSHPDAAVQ

[17] = test system: Phosphatidylinositol 4,5-bisphosphate 3-kinase catalytic subunit alpha isoform (Homo sapiens), P42336 [E545K]; settings: Compound concentration 1000.0 nM
Phosphatidylinositol 4,5-bisphosphate 3-kinase catalytic subunit alpha isoform (Homo sapiens), P42336 [E545K], sequence (P42336 whole entry E545K, canonical isoform): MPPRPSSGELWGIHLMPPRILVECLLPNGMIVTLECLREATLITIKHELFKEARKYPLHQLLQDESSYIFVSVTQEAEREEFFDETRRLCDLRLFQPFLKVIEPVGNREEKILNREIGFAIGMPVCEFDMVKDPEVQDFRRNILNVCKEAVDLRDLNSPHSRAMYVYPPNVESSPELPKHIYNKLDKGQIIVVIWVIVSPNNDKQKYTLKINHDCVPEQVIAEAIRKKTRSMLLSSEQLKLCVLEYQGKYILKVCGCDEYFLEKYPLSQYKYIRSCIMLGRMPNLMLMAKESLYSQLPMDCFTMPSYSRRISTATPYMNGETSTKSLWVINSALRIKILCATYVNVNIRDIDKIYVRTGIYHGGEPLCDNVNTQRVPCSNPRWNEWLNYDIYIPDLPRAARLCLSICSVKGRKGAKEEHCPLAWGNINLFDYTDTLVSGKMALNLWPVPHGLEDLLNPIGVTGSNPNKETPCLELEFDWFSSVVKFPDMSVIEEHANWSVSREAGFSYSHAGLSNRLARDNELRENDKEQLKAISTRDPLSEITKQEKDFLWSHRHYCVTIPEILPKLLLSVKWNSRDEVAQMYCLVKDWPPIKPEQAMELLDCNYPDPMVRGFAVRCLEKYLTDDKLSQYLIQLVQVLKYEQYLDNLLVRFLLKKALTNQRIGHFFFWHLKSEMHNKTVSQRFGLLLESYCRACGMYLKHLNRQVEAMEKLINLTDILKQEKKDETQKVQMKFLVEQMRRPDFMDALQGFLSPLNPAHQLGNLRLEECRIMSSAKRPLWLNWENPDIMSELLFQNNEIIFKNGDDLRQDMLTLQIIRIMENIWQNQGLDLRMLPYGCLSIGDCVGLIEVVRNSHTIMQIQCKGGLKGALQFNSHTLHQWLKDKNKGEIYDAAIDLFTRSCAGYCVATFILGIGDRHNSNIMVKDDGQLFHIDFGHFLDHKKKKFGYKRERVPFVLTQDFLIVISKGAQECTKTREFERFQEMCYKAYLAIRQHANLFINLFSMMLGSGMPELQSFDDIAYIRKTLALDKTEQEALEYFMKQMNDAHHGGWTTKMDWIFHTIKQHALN

[18] = biological target: Phosphatidylinositol 4,5-bisphosphate 3-kinase catalytic subunit gamma isoform (Homo sapiens) (UniProt P48736); settings: Compound concentration 1000.0 nM
Phosphatidylinositol 4,5-bisphosphate 3-kinase catalytic subunit gamma isoform (Homo sapiens), sequence (P48736 whole entry, looked up, canonical isoform): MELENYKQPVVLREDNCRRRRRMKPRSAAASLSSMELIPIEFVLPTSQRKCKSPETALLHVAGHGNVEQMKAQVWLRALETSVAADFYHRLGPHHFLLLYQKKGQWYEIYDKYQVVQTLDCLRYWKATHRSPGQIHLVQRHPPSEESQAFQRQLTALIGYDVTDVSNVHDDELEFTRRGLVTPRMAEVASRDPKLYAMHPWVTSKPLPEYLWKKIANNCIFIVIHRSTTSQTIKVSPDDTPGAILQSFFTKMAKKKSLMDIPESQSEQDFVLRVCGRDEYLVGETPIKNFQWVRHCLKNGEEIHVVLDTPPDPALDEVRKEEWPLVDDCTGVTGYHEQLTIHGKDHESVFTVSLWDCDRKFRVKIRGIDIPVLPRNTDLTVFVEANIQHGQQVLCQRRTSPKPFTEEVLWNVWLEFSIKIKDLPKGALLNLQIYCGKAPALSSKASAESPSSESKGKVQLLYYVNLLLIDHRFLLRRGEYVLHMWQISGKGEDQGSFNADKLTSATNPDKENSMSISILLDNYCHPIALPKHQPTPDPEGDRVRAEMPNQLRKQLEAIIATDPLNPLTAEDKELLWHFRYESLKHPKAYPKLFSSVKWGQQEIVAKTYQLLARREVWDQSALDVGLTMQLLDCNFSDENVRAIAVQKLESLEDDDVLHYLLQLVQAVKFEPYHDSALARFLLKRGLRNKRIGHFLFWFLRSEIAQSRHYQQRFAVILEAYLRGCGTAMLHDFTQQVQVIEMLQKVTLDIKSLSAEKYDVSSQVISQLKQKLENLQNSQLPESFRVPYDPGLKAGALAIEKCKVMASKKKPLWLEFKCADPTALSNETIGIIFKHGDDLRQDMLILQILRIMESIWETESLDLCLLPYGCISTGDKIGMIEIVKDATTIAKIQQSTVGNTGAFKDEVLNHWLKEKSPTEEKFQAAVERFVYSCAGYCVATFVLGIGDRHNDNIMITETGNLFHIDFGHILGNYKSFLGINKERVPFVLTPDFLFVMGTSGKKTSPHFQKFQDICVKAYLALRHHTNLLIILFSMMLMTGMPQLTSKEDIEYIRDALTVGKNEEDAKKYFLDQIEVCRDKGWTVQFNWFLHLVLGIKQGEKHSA

[19] = biological target: Serine/threonine-protein kinase N2 (Homo sapiens) (UniProt Q16513); settings: Compound concentration 1000.0 nM
Serine/threonine-protein kinase N2 (Homo sapiens), sequence (Q16513 whole entry, looked up): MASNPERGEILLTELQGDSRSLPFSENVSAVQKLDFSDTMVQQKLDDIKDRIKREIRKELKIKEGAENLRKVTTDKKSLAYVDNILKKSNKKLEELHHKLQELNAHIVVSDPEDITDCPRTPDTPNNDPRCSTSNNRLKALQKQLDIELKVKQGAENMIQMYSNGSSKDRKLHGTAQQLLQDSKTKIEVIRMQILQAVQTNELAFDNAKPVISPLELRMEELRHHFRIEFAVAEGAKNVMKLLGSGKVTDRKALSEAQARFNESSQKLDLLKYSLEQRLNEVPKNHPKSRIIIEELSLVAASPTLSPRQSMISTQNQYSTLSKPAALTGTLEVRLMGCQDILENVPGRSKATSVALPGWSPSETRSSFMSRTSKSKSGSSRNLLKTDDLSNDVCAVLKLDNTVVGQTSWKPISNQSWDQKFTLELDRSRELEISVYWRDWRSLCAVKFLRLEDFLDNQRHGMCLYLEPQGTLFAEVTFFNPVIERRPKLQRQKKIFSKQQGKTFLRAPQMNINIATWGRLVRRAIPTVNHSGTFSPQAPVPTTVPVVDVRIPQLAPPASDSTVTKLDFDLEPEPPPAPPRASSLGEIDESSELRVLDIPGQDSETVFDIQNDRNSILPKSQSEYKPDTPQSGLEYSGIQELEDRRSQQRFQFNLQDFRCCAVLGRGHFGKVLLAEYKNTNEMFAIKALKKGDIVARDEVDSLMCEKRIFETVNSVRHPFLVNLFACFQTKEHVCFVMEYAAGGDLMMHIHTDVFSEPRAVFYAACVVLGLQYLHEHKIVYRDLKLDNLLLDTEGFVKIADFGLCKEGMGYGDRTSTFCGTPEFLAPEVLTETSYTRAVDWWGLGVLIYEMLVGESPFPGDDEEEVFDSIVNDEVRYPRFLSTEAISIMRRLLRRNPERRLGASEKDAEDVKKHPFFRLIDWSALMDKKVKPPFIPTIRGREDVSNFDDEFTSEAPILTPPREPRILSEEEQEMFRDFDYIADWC

[20] = biological target: T3, Tyrosine-protein kinase Tec (Homo sapiens) (UniProt P42680); settings: Compound concentration 1000.0 nM
T3 sequence (whole entry): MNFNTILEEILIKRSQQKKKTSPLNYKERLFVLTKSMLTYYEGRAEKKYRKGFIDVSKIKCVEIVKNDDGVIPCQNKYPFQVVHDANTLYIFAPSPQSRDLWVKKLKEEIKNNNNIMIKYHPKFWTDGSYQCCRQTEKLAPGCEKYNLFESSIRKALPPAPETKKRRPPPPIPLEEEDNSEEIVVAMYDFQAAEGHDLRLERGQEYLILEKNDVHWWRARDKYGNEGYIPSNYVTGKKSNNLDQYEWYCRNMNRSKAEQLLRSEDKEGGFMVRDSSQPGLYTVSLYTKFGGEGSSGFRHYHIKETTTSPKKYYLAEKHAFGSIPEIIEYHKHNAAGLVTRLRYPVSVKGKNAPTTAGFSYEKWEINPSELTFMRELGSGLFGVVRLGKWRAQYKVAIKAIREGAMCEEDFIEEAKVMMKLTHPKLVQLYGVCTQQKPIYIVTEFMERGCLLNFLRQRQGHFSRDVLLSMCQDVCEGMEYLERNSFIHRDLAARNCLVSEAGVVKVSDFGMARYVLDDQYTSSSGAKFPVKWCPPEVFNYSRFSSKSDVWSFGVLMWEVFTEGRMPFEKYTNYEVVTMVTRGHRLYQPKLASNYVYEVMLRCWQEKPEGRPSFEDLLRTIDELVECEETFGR

[21] = biological target: 5-hydroxytryptamine receptor 1A (Homo sapiens) (UniProt P08908); settings: Compound concentration 10.0 uM
[22] = biological target: D(4) dopamine receptor (Homo sapiens) (UniProt P21917); settings: Compound concentration 10.0 uM
D(4) dopamine receptor (Homo sapiens), sequence (P21917 whole entry): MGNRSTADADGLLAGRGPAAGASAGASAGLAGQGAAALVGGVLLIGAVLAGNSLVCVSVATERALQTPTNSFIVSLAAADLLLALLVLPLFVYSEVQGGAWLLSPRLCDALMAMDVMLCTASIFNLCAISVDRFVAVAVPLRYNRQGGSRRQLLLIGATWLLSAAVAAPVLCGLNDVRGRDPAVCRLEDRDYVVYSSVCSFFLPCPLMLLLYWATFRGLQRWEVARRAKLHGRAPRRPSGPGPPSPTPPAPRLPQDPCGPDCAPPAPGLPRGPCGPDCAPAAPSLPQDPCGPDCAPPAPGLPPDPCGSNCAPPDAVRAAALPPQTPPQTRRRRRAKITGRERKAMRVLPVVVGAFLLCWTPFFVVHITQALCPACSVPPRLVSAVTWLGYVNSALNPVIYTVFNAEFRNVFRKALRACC

Cc1nc(C2CCN(C(=O)c3ccc(OC(F)(F)F)cc3N)CC2)c2ncc(N3CCN(C)CC3)cc2n1 [BAY-693]
inactive: residual activity [1] 81% | residual activity [2] 100% | residual activity [3] 89% | residual activity [4] 80% | residual activity [5] 100% | residual activity [6] 100% | residual activity [7] 100% | residual activity [8] 100% | residual activity [9] 86% | residual activity [10] 98% | residual activity [11] 100% | residual activity [12] 90% | residual activity [13] 90% | residual activity [14] 78% | residual activity [15] 92% | residual activity [16] 93% | residual activity [17] 85% | residual activity [18] 79% | residual activity [19] 100% | residual activity [20] 96% | inhibition [21] -3.88% | inhibition [22] 1.98%

CN1CCN(c2cnc3c(C4CCN(C(=O)c5ccc(OC(F)(F)F)cc5N)CC4)ncnc3c2)CC1 [BAY-885]
inactive: residual activity [1] 79% | residual activity [2] 100% | residual activity [3] 99% | residual activity [4] 79% | residual activity [5] 100% | residual activity [6] 100% | residual activity [7] 100% | residual activity [8] 100% | residual activity [9] 99% | residual activity [10] 94% | residual activity [11] 100% | residual activity [12] 90% | residual activity [13] 98% | residual activity [14] 81% | residual activity [15] 94% | residual activity [16] 85% | residual activity [17] 100% | residual activity [18] 95% | residual activity [19] 100% | residual activity [20] 100% | inhibition [21] 7.38% | inhibition [22] 12.7%

Source: ChEMBL document CHEMBL4507268 (2021)
